The record followed here is patent publication US20220119354A1, “DIAMINO-SUBSTITUTED PYRIDINES AND PYRIMIDINES AS HERBICIDES” (FMC Corporation, priority 2019, published 2022).

As a reminder, the melting point is the temperature of the solid-liquid transition.

One data set deals with kochia (Kochia scoparia). The data set is described as follows: Test A preemergence, kochia. Type of data set: in vivo. Conditions: 0 to 100 scale, 0 is no effect, 100 is complete control. The method in brief: (§1)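 Seeds sown in loam–sand blend received a directed soil spray of test chemical in non-phytotoxic solvent with surfactant (preemergence); postemergence plants at 2–10 cm, one- to two-leaf stage, were sprayed with the same formulation. Injury rated visually versus untreated controls after ~10 d in greenhouse, 0–100 scale.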

The subject of a further data set is corn (Zea mays). The data set can be described thus: Test A postemergence, corn. Type of data set: in vivo. Conditions: Zea mays, post-emergence, 240 h, 0 to 100 scale, 0 no effect, 100 complete control; for Corn plant response rating (crop injury, 0 = no effect, 100 = complete kill) at 125 g/ha: 125 g ai/ha; for Corn plant response rating (crop injury, 0 = no effect, 100 = complete kill) at 500 g/ha: 500 g ai/ha. The procedure, abridged: as §1

Data set [1] relates to ducksalad (Heteranthera limosa). The data set can be described thus: Test B flooded paddy test, ducksalad. The data set is classed as in vivo. Conditions: Heteranthera limosa, 360 h; Flood, 250 g ai/ha, applied to paddy water, 2-leaf stage, visual evaluation after 13 to 15 d; read-out: Plant response rating, Ducksalad (0 to 100 scale, 0 is no effect, 100 is complete control). The method in brief:
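Each response is a visual 0–100 rating made against untreated controls, where 0 is no effect and 100 is complete control; a dash marks no result. Compound was dosed into 3 cm paddy water over 2-leaf plants, assessed after 13 to 15 d.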

With `C[C@@H](Nc1ncc(C(F)(F)F)c(N)n1)c1cc2cccc(F)c2s1` [Compound 75, N2-[(1R)-1-(7-fluorobenzo[b]thien-2-yl)ethyl]-5-(trifluoromethyl)-2,4-pyrimidinediamine], the “Kochia plant response rating” value in the data set with kochia (Kochia scoparia) (125 g ai/ha) was 90. Moreover, the “Kochia plant response rating” value in the data set on kochia (Kochia scoparia) (500 g ai/ha) stood at 100. In the data set with corn (Zea mays), this compound displayed a Corn plant response rating (crop injury, 0 = no effect, 100 = complete kill) at 125 g/ha of 0% and a Corn plant response rating (crop injury, 0 = no effect, 100 = complete kill) at 500 g/ha of 10%. The pest or weed control at 250 g/ha in data set [1] was 95%.

`C[C@@H](Nc1ncc(C(F)(F)F)c(N)n1)c1cc2c(F)cccc2s1` [Compound 61, N2-[(1R)-1-(4-fluorobenzo[b]thien-2-yl)ethyl]-5-(trifluoromethyl)-2,4-pyrimidinediamine] showed a melting point of 137 to 141 °C. The “Kochia plant response rating” value in the data set on kochia (Kochia scoparia) (125 g ai/ha) turned out to be 90. In the data set with kochia (Kochia scoparia) (500 g ai/ha), the “Kochia plant response rating” value is listed as 90. For the same compound, in the data set on corn (Zea mays), the Corn plant response rating (crop injury, 0 = no effect, 100 = complete kill) at 125 g/ha is 10% and the Corn plant response rating (crop injury, 0 = no effect, 100 = complete kill) at 500 g/ha worked out at 60%. In addition, the pest or weed control at 250 g/ha in data set [1] was 50%.

Regarding `C[C@@H](Nc1ncc(C(F)(F)F)c(N)n1)c1cc2cccc(F)c2o1` [Compound 71, N2-[(1R)-1-(7-fluoro-2-benzofuranyl)ethyl]-5-(trifluoromethyl)-2,4-pyrimidinediamine], the entries for the “Kochia plant response rating” value with kochia (Kochia scoparia) (125 g ai/ha) and with kochia (Kochia scoparia) (500 g ai/ha) were 90 and 100, respectively. In the data set with corn (Zea mays), this compound had a Corn plant response rating (crop injury, 0 = no effect, 100 = complete kill) at 125 g/ha of 0%. This compound also gave a Corn plant response rating (crop injury, 0 = no effect, 100 = complete kill) at 500 g/ha in the data set on corn (Zea mays) of 40%. Moreover, the pest or weed control at 250 g/ha in data set [1] turned out to be 0%.

For `C[C@@H](Nc1ncc(C(F)(F)F)c(N)n1)c1cc2c(F)cccc2o1` [Compound 73, N2-[(1R)-1-(4-fluoro-2-benzofuranyl)ethyl]-5-(trifluoromethyl)-2,4-pyrimidinediamine], the “Kochia plant response rating” value in the data set with kochia (Kochia scoparia) (125 g ai/ha) was 100. In addition, in the data set on kochia (Kochia scoparia) (500 g ai/ha), the “Kochia plant response rating” value worked out at 100. In the data set with corn (Zea mays), this compound had a Corn plant response rating (crop injury, 0 = no effect, 100 = complete kill) at 125 g/ha of 30% and a Corn plant response rating (crop injury, 0 = no effect, 100 = complete kill) at 500 g/ha of 40%. The pest or weed control at 250 g/ha in data set [1] came to 98%.
